Measurements as given in US20070122414A1, “Surface marker-directed cancer therapeutics” (Aurelium BioPharma Inc., priority 2005, published 2007).

Test system: SKOV3 ovarian tumor cells
Experiment: SKOV3 tumor xenograft in nude mice, relative tumor volume (Example 1)
Assay type: in vivo
Settings: SKOV3 tumors in nude mice; intravenous
Method: Starting on the first day of treatment, tumor growth was measured by […], and the volume of the xenograft was monitored every 4 days. […] Mice were then treated with vimentin-directed therapeutics. […] Taxol was obtained commercially from Sigma Corp. (St. Louis, Mo.).
All treatments were introduced by intravenous administration. Mice were then sacrificed and tumors excised for relative volume determinations.

CC(=O)O[C@H]1C(=O)[C@@]2(C)[C@H]([C@H](OC(=O)c3ccccc3)[C@]3(O)C[C@H](OC(=O)[C@H](O)[C@@H](NC(=O)c4ccccc4)c4ccccc4)C(C)=C1C3(C)C)[C@]1(OC(C)=O)CO[C@@H]1C[C@@H]2O [taxol]
tumor size/volume relative to other treatment groups: smaller than tumors in mice treated with vehicle or isotypic control, but not as small as the tumors isolated from mice treated with anti-vimentin antibodies and taxol together
